One block for each molecule: values may come before it.
Key:
[1] = biological target: T1, ecdysone receptor (PxGST−EcR) (Plutella xylostella, UniProt G5CV07); test: competitive radioligand binding, displacement of [3H]PonA from purified EcR/USP dimer; parameters: truncated LBD-containing functional domain (D and E domains) fused to GST; with USP (PxGST−USP)
T1 sequence (G5CV07 285-528): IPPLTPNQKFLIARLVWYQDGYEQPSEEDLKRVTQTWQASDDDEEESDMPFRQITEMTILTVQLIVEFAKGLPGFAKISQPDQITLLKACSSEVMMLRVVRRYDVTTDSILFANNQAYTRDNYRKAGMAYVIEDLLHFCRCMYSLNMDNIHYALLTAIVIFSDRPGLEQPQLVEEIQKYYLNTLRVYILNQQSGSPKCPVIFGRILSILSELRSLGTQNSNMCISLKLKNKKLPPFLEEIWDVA
T1 sequence (G5CV12 133-414 partner limits assumed): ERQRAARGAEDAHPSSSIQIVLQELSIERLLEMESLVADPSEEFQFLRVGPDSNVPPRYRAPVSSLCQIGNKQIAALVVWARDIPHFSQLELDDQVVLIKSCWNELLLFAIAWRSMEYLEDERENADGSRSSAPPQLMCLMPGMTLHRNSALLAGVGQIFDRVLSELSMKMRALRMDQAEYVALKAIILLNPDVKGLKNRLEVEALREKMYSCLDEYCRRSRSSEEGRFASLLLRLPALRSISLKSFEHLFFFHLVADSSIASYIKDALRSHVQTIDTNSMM

[2] = biological target: T1, ecdysone receptor (PxGST−EcR); test: biochemical
[3] = biological target: T2, PxGST-EcR (Plutella xylostella ecdysone receptor, truncated LBD-containing functional domain fused to … (Plutella xylostella, UniProt G5CV07)); test: TEM and zeta potential of co-incubated proteins, supported by enhanced [3H]PonA binding
T2 chain: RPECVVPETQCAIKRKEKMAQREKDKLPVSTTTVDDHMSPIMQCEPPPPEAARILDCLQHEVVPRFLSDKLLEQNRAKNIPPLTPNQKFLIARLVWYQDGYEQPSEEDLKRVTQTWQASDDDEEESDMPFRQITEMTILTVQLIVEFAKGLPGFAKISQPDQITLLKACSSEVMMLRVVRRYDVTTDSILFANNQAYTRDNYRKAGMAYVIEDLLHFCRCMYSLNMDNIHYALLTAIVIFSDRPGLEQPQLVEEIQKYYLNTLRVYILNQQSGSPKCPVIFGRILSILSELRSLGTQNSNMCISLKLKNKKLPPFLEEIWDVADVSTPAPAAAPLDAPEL

Molecule: CCc1ccc(C(=O)NN(C(=O)c2cc(C)cc(C)c2)C(C)(C)C)cc1 [tebufenozide]
IC50 [1]: 0.0806 µM

Molecule: CC(C)CC[C@@H](O)[C@](C)(O)[C@H]1CC[C@@]2(O)C3=CC(=O)[C@@H]4C[C@@H](O)[C@@H](O)C[C@]4(C)[C@H]3CC[C@]12C [PonA]
Kd [2]: 0.0023 µM

binding result [3]: binds
B1: PxGST-USP (Plutella xylostella ultraspiracle, truncated LBD-containing functional domain fused to glutathione-S-transferase) (protein)
chain: KREAVQEERQRAARGAEDAHPSSSIQIVLQELSIERLLEMESLVADPSEEFQFLRVGPDSNVPPRYRAPVSSLCQIGNKQIAALVVWARDIPHFSQLELDDQVVLIKSCWNELLLFAIAWRSMEYLEDERENADGSRSSAPPQLMCLMPGMTLHRNSALLAGVGQIFDRVLSELSMKMRALRMDQAEYVALKAIILLNPDVKGLKNRLEVEALREKMYSCLDEYCRRSRSSEEGRFASLLLRLPALRSISLKSFEHLFFFHLVADSSIASYIKDALRSHVQTIDTNSMM
